Reference: patent US20070197625A1, “Azabicyclic compounds, a process for their preparation and pharmaceutical compositions containing them” (Les Laboratoraties Servier, priority 2004, published 2007)

Target: T1, type H3 central histaminergic receptors (Mus musculus, UniProt P58406)
T1 construct: from tissue; host or cells: brain of living NMRI mice
Assay: Cerebral doses of N^t-methylhistamine in the NMRI mouse (ex vivo, after oral administration)
Details: NMRI mice, brain two hours after treatment, vs carrier control
Experimental: The aim of this study, carried out according to the method of Taylor et al. (Biochem. Pharm., 1992, 44, 1261-1267), is to evaluate the ex vivo activity of the compounds of the present invention as type H3 central histaminergic receptor antagonists. […] An increase in the cerebral concentrations of N^t-methylhistamine signifies an increase in histamine turnover by blockade of the type H3 central histaminergic receptors.
NMRI mice (18-20 g) are treated via oral administration with the compounds of the present invention or with their carrier (20 ml/kg). Two hours after the pharmacological treatment, the animals are sacrificed, the brains are removed, frozen in liquid nitrogen, weighed and homogenised in 0.1N HClO4 at 4° C. The homogenates are centrifuged (15000 g, 17 min, 4° C.). The supernatants are recovered and divided into aliquots. The aliquots are frozen in liquid nitrogen and stored at −80° C. until their analysis.
Determination of the cerebral levels of N^t-methylhistamine is effected by capillary electrophoresis coupled with detection by laser-induced fluorescence (J. Chromatogr. A., 1996, 755, 99-115). The tissue levels of N^t-methylhistamine are expressed in ng/g of fresh brain. Comparison between the cerebral levels of N^t-methylhistamine of the animals treated with the carrier (control) and the animals treated with the compounds of the present invention (n=5/group) is effected by single factor variance analysis followed, if necessary, by a supplementary analysis (Dunnett's test).

T1 sequence (P58406 whole entry): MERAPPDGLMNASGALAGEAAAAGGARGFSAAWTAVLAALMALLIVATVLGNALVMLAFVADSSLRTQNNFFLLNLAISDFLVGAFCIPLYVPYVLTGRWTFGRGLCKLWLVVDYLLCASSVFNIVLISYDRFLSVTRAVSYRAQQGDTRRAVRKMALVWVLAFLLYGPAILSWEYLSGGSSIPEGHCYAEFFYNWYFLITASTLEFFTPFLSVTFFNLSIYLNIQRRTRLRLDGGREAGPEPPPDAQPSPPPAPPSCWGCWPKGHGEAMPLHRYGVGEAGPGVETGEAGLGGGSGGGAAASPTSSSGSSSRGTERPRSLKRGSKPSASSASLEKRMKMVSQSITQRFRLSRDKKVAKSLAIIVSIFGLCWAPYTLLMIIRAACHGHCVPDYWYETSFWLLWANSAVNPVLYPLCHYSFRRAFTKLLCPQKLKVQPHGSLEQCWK

Row | SMILES | increase of the endogenous cerebral concentrations of N^t-methylhistamine (10 mg/kg p.o.) | increase of the endogenous cerebral concentrations of N^t-methylhistamine (3 mg/kg p.o.)
1 | N#Cc1ccc(OCCCN2CC3CCCC3C2)cc1.O=C(O)C(=O)O (centres unmarked) [Example 1, 4-(3-Hexahydrocyclopenta[c]pyrrol-2(1H)-ylpropoxy)benzonitrile oxalate] | 92% | –
2 | CC(=O)Nc1ccc(OCCCN2CC3CCCC3C2)cc1.O=C(O)C(=O)O (centres unmarked) [Example 4, N-[4-(3-Hexahydrocyclopenta[c]pyrrol-2(1H)-ylpropoxy)-phenyl]acetamide oxalate] | – | 52%
3 | NC(=O)c1ccc(OCCCN2CC3CCCC3C2)cc1.O=C(O)C(=O)O (centres unmarked) [Example 22, 4-(3-Hexahydrocyclopenta[c]pyrrol-2(1H)-ylpropoxy)benzamide oxalate] | 85% | 33%
4 | CNC(=O)c1ccc(OCCCN2CC3CCCC3C2)cc1 (centres unmarked) [Example 93, 4-[3-(Hexahydrocyclopenta[c]pyrrol-2(1H)-yl)propoxy]-N-methylbenzamide] | – | 90%
